Assay results: patent publication US20100075435A1, “BIOTINYLATED THYROXINE” (priority 2008, published 2010)

Tested on: T4-streptavidin (Biotin-PEG4-T4 streptavidin conjugate) immobilized flow cell Fc3
Assay: SPR bivalent kinetic analysis of antibodies on T4-streptavidin immobilized flow cell (Biocore 3000, CM5 chip)
Type: binding
Details: comparison of antibodies 1 and 2
Procedure: The biotinylated thyroxine obtained in Example 1 (PEG n=4) (Biotin-PEG4-T4) (1.2 mg) was dissolved in 189.8 microliters of DMSO.
A 98 microliter quantity of 1 mg/mL of streptavidin and 1.33 microliters of the DMSO solution (5 mM) of Biotin-PEG4-T4 obtained above were dissolved in 0.67 microliters of HBSN. Here, the streptavidin:biotin ratio was 1:4 (mole ratio).
A Biocore 3000 (Biocore) was employed as the surface plasmon resonance (SPR) device. CM5 sensor chips were employed, and four flow cells (Fc 1 to 4) were prepared according to the following procedure. The flow rate was 10 microliters/min.
A flow of a 70 microliter quantity of a mixed solution of equal quantities of EDC (1-ethyl-3-(3-dimethylaminopropyl)carbodiimide) and NHS (N-hydroxysuccinimide) was run (7 minutes), after which a flow of a 70 microliter quantity of a solution of streptavidin in […] (0.2 mg/mL, pH 5.0) was run (7 minutes). Subsequently, a flow of ethanolamine was similarly run.
A flow of a 70 microliter quantity of mixed solution of equal quantities of EDC and NHS was run (7 minutes), after which a flow of a 70 microliter solution of T4-streptavidin in […] (0.2 mg/mL, pH 5.0) was run (7 minutes). […]
It was necessary to conduct interaction analysis at the minimum level of immobilization within the range over which the S/N ratio could be calculated. […]

`COC(=O)C(Cc1cc(I)c(Oc2cc(I)c(O)c(I)c2)c(I)c1)NC(=O)CCOCCOCCOCCOCCNC(=O)CCCCC1SCC2NC(=O)NC21` (stereo not shown) [Example 1, Biotinylated Thyroxine (PEG n=4)] was tested, and the binding rates was “about the same binding rates”.
